According to US20240208950A1, “COMPOSITIONS AND METHODS FOR TREATMENT OF CERVICAL AND OVARIAN CANCER” (SOUTH DAKOTA BOARD OF REGENTS, priority 2021, published 2024):

Experiments:
β-catenin in SiHa cells [1] = assay: β-catenin degradation with cyclohexamide (western blot, pulse chase), SiHa; assay type: cell-based, human; details: with cyclohexamide (CHX: 50 mg), ORM-Br
Experimental: A western blot analysis was conducted to determine the effect of ORM-Br on β-catenin degradation. […] Protein lysates were prepared and subjected to western blot analysis to ascertain the levels of protein of β-catenin in cyclohexamide-treated cells (FIG. 3A) and in ORM-Br and cyclohexamide-treated cells (FIG. 3B).

[2] = test system: ovarian cancer cell line A2780; assay: MTT cell viable assay (cytotoxicity and anti-proliferation); assay type: cell-based; details: Homo sapiens
Experimental: A biological assay was performed to study the potency of ORM-analogs by observing their pharmaceutical effects on living tissue (in vitro) and the effects of these analogs of unknown potency were compared to the effects of the standard (ormeloxifene). An MTT cell viable assay was first conducted to measure the cytotoxicity and anti-proliferation activity of synthesized analogs (Table 2 and FIG. 2).

[3] = test system: cleaved PARP in SiHa cells; assay: Western blot for cleavage of PARP, SiHa; assay type: cell-based, human; details: 24 hours
Experimental: The effect of Br-ORM on protein expression in cervical cancer cells were determined by Western blot analysis by using specific antibodies.
It was observed that Br-ORM exerts potent growth inhibitory effects, so the effect of Br-ORM on apoptosis induction was further examined. Cervical cancer cells were treated with Br-ORM (10 μM) for 24 hours and the apoptosis inducing effect of Br-ORM was analyzed by Annexin V staining and Western blot analysis for cleavage in PARP protein.
FIG. 13. Br-ORM decreases proliferation and colony formation of cervical cancer cells. FIG. 13A. Effect of Br-ORM on cell viability of CaSki cells (i) and SiHa cells (ii). Briefly, cervical cancer cells were seeded (2500) in each well of 96-well plate and after overnight incubation; cells were treated with indicated concentrations of Br-ORM for 24 hours. Cell viability was assessed by MTS assay. […] Bar graphs indicating quantification of colony formation in CaSki (i), and SiHa (ii) cells of cervical cancer with respect to vehicle control. […] Briefly, cervical cancer cells were treated with Br-ORM (10 μM) for 24 hours and the apoptosis inducing effect of Br-ORM was analyzed by Annexin V staining. […] The equal loading of protein in each lane was determined by probing the blots with β-actin antibody (FIG. 13F). […] Br-ORM arrests cell cycle in G1/S phase as determined by flow cytometry. […]

β-catenin in SiHa cells [4] = assay: Western blot of β-catenin in nuclear and cytoplasmic extracts, SiHa; assay type: cell-based, human; details: 15 μM, 24 hours
Experimental: In the Example shown at FIGS. 9A-9E, cells were subjected to treatment with 15 μM concentration of ORM-Br for 24 hours, nuclear extracts were prepared and western blot analysis were used to detect the protein levels of β-catenin. […] Western blots were reprobed with β-actin and Histone H3 antibodies as an internal control.
The nuclear and cytoplasmic lysates were prepared using respective buffers. The cell lysates (40 μg) were subjected to SDS-PAGE and blotted on PVDF membrane. The membranes were further blocked in 5% milk diluted in 1×TBST solution for 1 hour and incubated overnight in primary antibodies. The following day, the membranes were washed and incubated with secondary antibodies for 1 hour, washed again and developed on a UVP system using chemi-luminiscent reagents.
The EMT process in a cell is driven by growth factors or other signaling proteins such as Wnt/beta-catenin and extracellular matrix component that may stimulate cellular growth and migration. The effect of Br-ORM on β-catenin signaling was examined.
FIG. 15. Effect OF Br-ORM on β-catenin signaling and molecular docking of Br-ORM with β-catenin. Effect of Br-ORM on β-catenin distribution in cytoplasm and nucleus of CaSki and SiHa cells. […] Effect of Br-ORM on β-catenin localization in CaSki cells as determined by confocal microscopy (FIG. 15B(i)-(ii)). […]

## COc1ccc2c(c1)OC(C)(C)C(c1ccc(Br)cc1)C2c1ccc(OCCN2CCCC2)cc1 (centres unmarked) [ORM-Br]
β-catenin in SiHa cells [1]
  protein levels of β-catenin relative to cyclohexamide treatment: significant decrease in protein levels of β-catenin
[2]
  IC50: 11.2 µM
[3]
  protein levels of cleaved PARP: dose dependently enhanced the protein levels of cleaved PARP
β-catenin in SiHa cells [4]
  nuclear β-catenin expression: decrease in expression of nuclear β-catenin
β-catenin in SiHa cells [4]; listed as Br-ORM
  nuclear β-catenin expression: inhibited nuclear β-catenin
